Experimental data taken from patent US11919965B2, “Methods of treating multiple myeloma with bispecific anti-BCMA x anti-CD3 antibodies” (Regeneron Pharmaceuticals, Inc., priority 2019, dated 2024).

What was measured:
[1] = system: Jurkat/NFATLuc.3C7 reporter cells with HEK293 cells (BCMA negative); experiment: Jurkat/NFATLuc reporter bioassay (T-cell activation); type: cell-based, human
Experimental: (§1) Activity of the anti-BCMA×anti-CD3 bispecific antibodies were assessed in a Jurkat/NFATLuc reporter bioassay utilizing several cell lines with varying levels of BCMA surface expression. The Jurkat cells were engineered to express an NFAT-luciferase reporter (Jurkat/NFATLuc.3C7), and 50,000 Jurkat reporter cells were combined with 50,000 BCMA positive (Daudi, MM1-S, NCI-H929, OPM-2, RPMI-8226, MOLP-8, or Raji) or BCMA negative (HEK293) cells in Thermo Nunclon delta 96 well white microwell plates (Thermo Scientific, Cat #136102) in 50 ul of assay media (RPMI media with 10% FBS and 1% P/S/G). Three-fold serial dilutions of the BCMA×CD3 bispecific antibodies (mAb25441D or mAb25442D), or a bivalent anti-BCMA antibody (mAb21581) were immediately added in 50 uL of assay buffer. The plates were gently agitated and incubated in a 37° C., 5% CO2 incubator for 4-6 hours. NFAT-Luciferase activity was determined using Promega One-Glo (Cat #E6130) and a Perkin Elmer Envision plate reader. RLU were plotted in GraphPad Prism using a four-parameter logistic equation over a 12-point response curve to calculate EC50 values. The no antibody treatment condition for each dose-response curve is also included in the analysis as a continuation of the three-fold serial dilution and is represented as the lowest dose. The signal to noise (S:N) is determined by taking the ratio of the highest RLU on the curve to the lowest.

[2] = system: Jurkat/NFATLuc.3C7 reporter cells with Raji cells (BCMA positive); experiment: as above; type: cell-based, human
Experimental: as §1

[3] = system: Jurkat/NFATLuc.3C7 reporter cells with RPMI-8226 cells (BCMA positive); experiment: as above; type: cell-based, human
Experimental: as §1

[4] = system: Jurkat/NFATLuc.3C7 reporter cells with MM1-S cells (BCMA positive); experiment: as above; type: cell-based, human
Experimental: as §1

MC38/BCMA tumors = experiment: Syngenic tumor model in CD3-humanized mice (Example 16); type: in vivo, mouse
Experimental: (§2) To determine the in vivo efficacy of anti-BCMA×anti-CD3 bispecific antibodies (Abs), a syngenic tumor study was performed in mice expressing human CD3. C57BL/6 mice that express human CD3deg in place of murine CD3deg (CD3-humanized mice) were subcutaneously implanted with either 0.5×10^6 B16 melanoma cells that have been engineered to express full-length human BCMA (B16/BCMA cells) or 1×10^6 MC38 colon carcinoma cells that have been engineered to express full-length human BCMA (MC38/BCMA). […] The mice were administered these Abs twice more on days 4 and 7 for a total of three doses, and tumor growth was assessed throughout the experiment.
(§3) Implantation and measurement of syngenic tumors: C57BL/6 mice that express human CD3deg in place of murine CD3deg (CD3-humanized mice) were subcutaneously implanted with either 0.5×10^6 B16F10 melanoma cells that have been engineered to express full-length human BCMA (B16/BCMA cells) or 1×10^6 MC38 colon carcinoma cells that have been engineered to express full-length human BCMA (MC38/BCMA). […] The mice were administered these Abs twice more on days 4 and 7 for a total of three doses, and tumor growth was assessed throughout the experiment.
(§4) Calculation of syngenic tumor growth and inhibition: In order to determine tumor volume by external caliper, the greatest longitudinal diameter (length in mm) and the greatest transverse diameter (width in mm) were determined. Tumor volumes based on caliper measurements were calculated by the formula: Volume (mm^3)=(length×width^2)/2.

B16/BCMA tumors = experiment: as above; type: in vivo, mouse
Experimental: as §2, §3, §4

monkey BCMA-MFC = experiment: SPR (Biacore 4000) binding kinetics at 25° C.
Experimental: (§5) The CM5 Biacore sensor surface was derivatized by amine coupling with a monoclonal mouse anti-human Fc antibody (GE, #BR-1008-39) to capture purified anti-BCMA mAbs and anti-BCMA×anti-CD3 bispecific mAbs. All Biacore binding studies were performed in a buffer composed of 0.01M HEPES pH 7.4, 0.15M NaCl, 3 mM EDTA, 0.05% v/v Surfactant P20 (HBS-ET running buffer). […] Antigen samples were then injected over the anti-BCMA and anti-BCMA×anti-CD3 bispecific mAbs captured surfaces at a flow rate of 30 μL/minute. Antibody-reagent association was monitored for 5 minutes while dissociation in HBS-ET running buffer was monitored for 10 minutes. All of the binding kinetics experiments were performed at 25° C. Kinetic association (ka) and dissociation (kd) rate constants were determined by fitting the real-time sensorgrams to a 1:1 binding model using Scrubber 2.0c curve fitting software. Binding dissociation equilibrium constants (KD) and dissociative half-lives (t1/2) were calculated from the kinetic rate constants as: […]

monkey BCMA-MMH = experiment: SPR (Biacore 4000) binding kinetics at 25° C.
Experimental: as §5

monkey BCMA-MMH, sequence (as listed by the source): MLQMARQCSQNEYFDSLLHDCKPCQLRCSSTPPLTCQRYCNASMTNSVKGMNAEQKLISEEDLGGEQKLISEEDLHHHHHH
monkey BCMA-MFC, sequence (as listed by the source): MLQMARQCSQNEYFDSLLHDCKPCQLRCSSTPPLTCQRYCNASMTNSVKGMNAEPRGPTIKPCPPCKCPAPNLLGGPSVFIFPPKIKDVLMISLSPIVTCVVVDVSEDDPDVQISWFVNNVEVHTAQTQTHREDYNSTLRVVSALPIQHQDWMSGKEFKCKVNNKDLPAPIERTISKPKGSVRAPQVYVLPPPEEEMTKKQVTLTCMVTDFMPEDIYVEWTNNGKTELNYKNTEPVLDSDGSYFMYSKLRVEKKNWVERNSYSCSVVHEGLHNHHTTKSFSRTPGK

Row | Substance | S:N (highest RLU to lowest) [1] | S:N (highest RLU to lowest) [2] | S:N (highest RLU to lowest) [3] | S:N (highest RLU to lowest) [4] | ka (monkey BCMA-MFC) [M⁻¹ s⁻¹] | kd (monkey BCMA-MFC) [s⁻¹] | ka (monkey BCMA-MMH) [M⁻¹ s⁻¹] | kd (monkey BCMA-MMH) [s⁻¹] | further results
1 | REGN5458: anti-BCMA×anti-CD3 bispecific antibody: mAb21581 BCMA heavy chain, mAb7221G CD3 heavy chain and common light chain; SEQ ID NOs 126, 127, 129 | 1 | 123 | 55 | 165 | 528000 | 8.8e-05 | 182000 | 0.00909 | tumor growth (MC38/BCMA tumors; 0.4 or 0.04 mg/kg): suppress the growth of both tumor lines in a dose-dependent manner; Average Tumor Size (mm3) ± SEM on Day 5 (MC38/BCMA tumors; MC38/BCMA Tumor, 0.04 mg/kg): 11.9 ± 2.9 mm3; Average Tumor Size (mm3) ± SEM on Day 10 (MC38/BCMA tumors; MC38/BCMA Tumor, 0.04 mg/kg): 66.7 ± 22.5 mm3; Average Tumor Size (mm3) ± SEM on Day 14 (MC38/BCMA tumors; MC38/BCMA Tumor, 0.04 mg/kg): 273.3 ± 115.3 mm3; Average Tumor Size (mm3) ± SEM on Day 18 (MC38/BCMA tumors; MC38/BCMA Tumor, 0.04 mg/kg): 641.5 ± 309.8 mm3; Average Tumor Size (mm3) ± SEM on Day 10 (MC38/BCMA tumors; MC38/BCMA Tumor, 0.4 mg/kg): 0.0 ± 0.0 mm3; Average Tumor Size (mm3) ± SEM on Day 14 (MC38/BCMA tumors; MC38/BCMA Tumor, 0.4 mg/kg): 2.9 ± 2.9 mm3; Average Tumor Size (mm3) ± SEM on Day 18 (MC38/BCMA tumors; MC38/BCMA Tumor, 0.4 mg/kg): 7.5 ± 7.5 mm3; tumor growth (B16/BCMA tumors; 0.4 or 0.04 mg/kg): suppress the growth of both tumor lines in a dose-dependent manner; Average Tumor Size (mm3) ± SEM on Day 5 (B16/BCMA tumors; B16/BCMA Tumor, 0.04 mg/kg): 3.3 ± 2.2 mm3; Average Tumor Size (mm3) ± SEM on Day 10 (B16/BCMA tumors; B16/BCMA Tumor, 0.04 mg/kg): 15.4 ± 12.5 mm3; Average Tumor Size (mm3) ± SEM on Day 14 (B16/BCMA tumors; B16/BCMA Tumor, 0.04 mg/kg): 81.4 ± 49.2 mm3; Average Tumor Size (mm3) ± SEM on Day 5 (B16/BCMA tumors; B16/BCMA Tumor, 0.4 mg/kg): 0.0 ± 0.0 mm3; Average Tumor Size (mm3) ± SEM on Day 10 (B16/BCMA tumors; B16/BCMA Tumor, 0.4 mg/kg): 0.0 ± 0.0 mm3; Average Tumor Size (mm3) ± SEM on Day 14 (B16/BCMA tumors; B16/BCMA Tumor, 0.4 mg/kg): 8.1 ± 4.4 mm3; Average Tumor Size (mm3) ± SEM on Day 18 (B16/BCMA tumors; B16/BCMA Tumor, 0.4 mg/kg): 47.1 ± 17.0 mm3
2 | REGN5459: anti-BCMA×anti-CD3 bispecific antibody: mAb21581 BCMA heavy chain, mAb7221G20 CD3 heavy chain and common light chain; SEQ ID NOs 126, 128, 129 | 1 | 78 | 42 | 120 | 482000 | 7.15e-05 | 223000 | 0.00864 | –
